Results: PubChem BioAssay AID1996
In brackets after ≈: the same amount, converted by molar mass.

settings: buffer; pH 7.4; 200.0 µM

Compound	solubility kinetic [µg/mL]
COc1ccc(CNC(=O)Nc2cccc(Cl)c2)cc1	1.1 (≈ 3.78 µM)
CN(Cc1ccccc1N1CCCC1)C(=O)c1cc2ccccc2o1	11.1 (≈ 33.2 µM)
CC(C)[C@H](NS(=O)(=O)c1ccccc1)C(=O)OCC(=O)NCc1ccc2c(c1)OCO2	> 67.3
CC1CC(C)(C)NC(=S)N1CCCC(=O)NCc1ccccc1 (centres undefined)	> 50
COc1ccc(C)cc1NC(=O)CCNC(=O)c1ccco1	> 45.3
Cl.Oc1ccc(-c2csc(Nc3cccc4ccccc34)n2)cc1O	15.2
COc1ccc(NC(=O)CNCc2ccc(Cl)cc2)cc1S(=O)(=O)N1CCOCC1.O=C(O)C(=O)O	> 81.6
CC(=O)NS(=O)(=O)c1ccc(NC(=O)c2ccc3c(c2)NC(=O)CS3)cc1	> 60.8
CC(C)CN(C(=O)CCNC(=O)c1ccc(Cl)cc1)C1CCS(=O)(=O)C1 (centres undefined)	> 60.1
Cc1ccsc1/C=C1\SC(=S)N(CC2CCCO2)C1=O (centres undefined)	< 0.7
Cc1ccc2c(c1)C1C[N+](C)(CC(=O)Nc3ccccc3Cl)CCC1N2C(=O)c1ccccc1Cl.[Cl-] (centres undefined)	> 81.7
O=C(NC(=S)Nc1ccc(Br)cc1F)C1CCCCC1	0.9 (≈ 2.51 µM)
Cc1ccc(C(=O)NCC(=O)NC2CCC(C)CC2)s1 (centres undefined)	7.6 (≈ 25.8 µM)
O=[N+]([O-])c1cc([N+](=O)[O-])c2nonc2c1Nc1ccc(O)cc1	> 47.6
COc1ccc(-c2nc(-c3cccnc3)no2)cc1OC	25.8 (≈ 91.1 µM)
CN(C)c1cccc(C(=O)OCC(=O)c2ccc[nH]2)c1	> 40.8
COc1ccc2oc(C(=O)Nc3nc(C)cs3)c(C)c2c1	4.8 (≈ 15.9 µM)
CN(C)S(=O)(=O)c1cc(NC(=O)COC(=O)c2nc(Cl)ccc2Cl)ccc1Cl	52.7 (≈ 113 µM)
CCOc1ccc(Br)cc1S(=O)(=O)NC1=NCCCCC1	> 56.3
COC(=O)Cc1ccc(NC(=S)N2CCN(c3ccccn3)CC2)cc1	5 (≈ 13.5 µM)
Cc1ccc2c(c1)sc(=NC(=O)c1cccs1)n2C	< 0.3
COc1ccc(N/C=C/C(=O)c2ccccc2)cc1	< 0.5
OC(CCN1CCOCC1)c1ccccc1 (centres undefined)	31.3 (≈ 141 µM)
CSc1ncc(-c2ccc(Cl)cc2)[nH]1	29.3 (≈ 130 µM)

Compound	solubility kinetic [µg/mL]
CN(Cc1cccs1)C(=O)CSc1nc2ccccc2[nH]1	45 (≈ 142 µM)
O=C(Cn1c(=O)n(CC2CS2)c2ccccc21)N1CCCCCC1 (centres undefined)	44.3 (≈ 128 µM)
COCCCNC(=O)c1cc2c(=O)n3cccc(C)c3nc2s1	6.3 (≈ 19 µM)
C/C(=N\NC(=O)c1cccc([N+](=O)[O-])c1)c1cccnc1	> 42.6
Cc1ccc(CN2CCCN(C)CC2)c(C)c1	23.4 (≈ 101 µM)
O=C(NCC(O)c1ccccc1)Nc1cccs1 (centres undefined)	> 39.3
O=[N+]([O-])c1ccc(CN2CCN(c3ccccc3)CC2)o1	14.5 (≈ 50.5 µM)
CN1CCN(CCC(=O)Nc2cccc(Br)c2)CC1	42.6 (≈ 131 µM)
CC1(C)C2CCC1(C)C(OCCNCCOC(=O)Nc1ccccc1)C2 (centres undefined)	10.2 (≈ 28.3 µM)
COc1cccc(CC(=O)Nc2ccc(-c3csc(C)n3)cc2)c1	2.5 (≈ 7.39 µM)
C=CCn1c(SCC(C)=O)nc2scc(-c3ccc(C)o3)c2c1=O	1.6 (≈ 4.44 µM)
CCN(CC)C(=O)c1cccc(C)c1	19.6 (≈ 102 µM)
CN(CC(=O)Nc1ccc(F)c(F)c1F)C(=O)c1ccc(=O)[nH]c1	> 50.9
Cc1ccc(C(=O)N/C(=C\c2cn(C)c3ccccc23)C(=O)OCCN(C)C)cc1	58.9 (≈ 145 µM)
O=C(Nc1cccc(Cl)c1)Nc1cnccn1	1.3 (≈ 5.23 µM)
c1ccc(CN2CCOCCOCCOCC2)cc1	> 39.8
COC(=O)c1ccc(NC(=O)c2ccc3nccnc3c2)cc1	3.5 (≈ 11.4 µM)
Cc1nc2ccc(NC(=O)CSc3ccccc3)cc2s1	46 (≈ 146 µM)
O=C1C(Cl)=C(N2CCOCC2)C(=O)N1c1ccccc1F	38.7 (≈ 125 µM)
CSc1ncc(C(=O)Nc2cccc(Cl)c2C)c(C)n1	18.8 (≈ 61.1 µM)
CC(C)OC(=O)C(C)Nc1ccc(F)c(Cl)c1 (centres undefined)	5.8 (≈ 22.3 µM)
Cc1ccc(CNCCc2ccc(F)cc2)s1	26.7 (≈ 107 µM)
C=CCn1c(O)c(C=NCCN2CCOCC2)c(=O)[nH]c1=S	> 48.7
COc1ccc(OC)c(C(=O)NC2CCSc3ccccc32)c1 (centres undefined)	12.1 (≈ 36.7 µM)

Compound	solubility kinetic [µg/mL]
CS(=O)(=O)N1CCCC(C(=O)Nc2cccc(F)c2)C1 (centres undefined)	> 45.1
CC1CC(C)CN(C(=O)COC(=O)c2cc3ccccc3oc2=O)C1 (centres undefined)	> 51.5
Cl.Oc1ccccc1C1NCc2ccccc2-n2cccc21 (centres undefined)	32.2
CCOP(=O)(OCC)C(Nc1ccc(C)cc1)c1ccco1 (centres undefined)	46.3 (≈ 143 µM)
CN1C[C@@H]2C[C@@H](c3cccn3-c3nccs3)N3CCC[C@@]23C1=O	47.2 (≈ 144 µM)
CCOc1ccccc1CNCCc1ccc2c(c1)OCO2.Cl	49.6
CC(=O)Nc1ccc(NC(=O)COC(=O)c2ccc([N+](=O)[O-])o2)cc1	> 52.1
CC(O)c1ccc(Oc2cnccn2)cc1 (centres undefined)	> 32.4
O=C(CN1C(=O)c2ccccc2S1(=O)=O)NCc1ccccc1	> 49.6
Cc1ccc(NC(=O)NCc2cccnc2)cc1Cl	39.7 (≈ 144 µM)
COC(=O)c1ccc(N2CCc3ccccc32)c([N+](=O)[O-])c1	1 (≈ 3.35 µM)
O=C1NCCN/C1=C\C(=O)c1ccc(Br)cc1	17.8 (≈ 60.3 µM)
O=c1cccc2n1CC1CNCC2C1 (centres undefined)	> 28.5
Cc1ccc(S(=O)(=O)N2CCOCC2)cc1C(=O)OCC(=O)NCCc1ccc(F)cc1	60.2 (≈ 130 µM)
CSc1ccccc1NC(=O)CSc1cccc[n+]1[O-]	> 46
CNC(=S)Nc1cccc(C(=O)O)c1	> 31.5
Cc1noc(C)c1C(=O)NCCc1ccc(S(N)(=O)=O)cc1	> 48.5
CC(=O)Nc1ccc(S(=O)(=O)Nc2nc3ccccc3nc2Nc2ccc(C(=O)O)c(O)c2)cc1	> 74
COC(=O)C1CCN(CC(=O)NC(=O)NC2CCCCC2)CC1	> 48.8
Cc1ccc(N=Cc2c(O)c3ccccc3oc2=O)cc1F	< 0.6
Cc1ccc(C(=O)N2CCN(c3nc4ccccc4n3C)CC2)cc1	> 50.2
CC(=O)N1CC(=O)N(c2ccccc2)C1=O	> 32.7
O=C(CCc1nc(-c2ccc(F)cc2)no1)Nc1cccc(C(=O)NC2CC2)c1	9.7 (≈ 24.6 µM)
CN(C)C(C(=O)Nc1cc(Cl)cc(Cl)c1)c1ccccc1 (centres undefined)	19.2 (≈ 59.4 µM)

Compound	solubility kinetic [µg/mL]
CN(Cc1ccccc1)S(=O)(=O)c1cccc2nsnc12	3 (≈ 9.39 µM)
NC(=O)c1c(/N=C/c2cccnc2)sc2c1CCCC2	22 (≈ 77.1 µM)
O=C(CC1NCCNC1=O)Nc1ccccc1 (centres undefined)	> 35
COc1cc2[nH]c(=S)nc(NCc3ccc(C)cc3)c2cc1OC	3.8 (≈ 11.1 µM)
O=[N+]([O-])c1ccc(NCc2ccc(Cl)cc2)c2ccncc12	0.3 (≈ 0.956 µM)
N/C(=N\c1nc2ccccc2o1)NC(=O)c1ccccc1Br	< 0.2
CCOc1ccc(S(=O)(=O)NCCc2ccccn2)cc1	> 46
C[C@H](NC(=O)c1ccco1)C(=O)NCc1cccs1	> 41.7
Cc1ccc2nc(SCC(=O)c3ccccc3)nc(=O)n2c1	33 (≈ 106 µM)
O=C(COC(=O)C1CCCCC1)Nc1cccc(F)c1	> 41.9
Cc1ccccc1C1NC(c2ccccc2C)C([N+](=O)[O-])C(C)(C)C1[N+](=O)[O-] (centres undefined)	0.3 (≈ 0.782 µM)
CSCCC(NC(=O)c1ccco1)C(=O)NCCc1ccc(Cl)cc1 (centres undefined)	19.6 (≈ 51.5 µM)
N#C/C(=C\N1CCOCC1)S(=O)(=O)c1ccc(Cl)cc1	45 (≈ 144 µM)
O=C(Cc1ccccc1[N+](=O)[O-])OCC(=O)c1ccccc1Br	39.1 (≈ 103 µM)
Brc1cccc(CN2CCCCCC2)c1	15.2 (≈ 56.7 µM)
CC1CCN(C(=O)COC(=O)c2cccs2)CC1	> 40.1
COc1cc(CC2C(=O)Nc3ccccc32)cc(C)c1O (centres undefined)	> 42.5
COC(=O)c1ccccc1NC(=O)c1ccc2c(c1)CC(C)O2 (centres undefined)	2.4 (≈ 7.71 µM)
CCOC(=O)C1CCCN(c2c(NCCC(C)C)c(=O)c2=O)C1 (centres undefined)	44.5 (≈ 138 µM)
COC(=O)Nc1nc(-c2cc(Cl)ccc2Cl)cs1	< 0.3
CCOC(=O)/C=C1/N(C)c2ccccc2C1(C)C	< 0.5
O=C1C2C3C=CC(CC3)C2C(=O)N1c1ccc(Cl)cc1Cl (centres undefined)	9.7 (≈ 30.1 µM)
Cc1ccc(S(=O)(=O)Nc2ccccc2CNC2CCCCC2)cc1	> 53.8
CCOC(=O)C1=Nc2ccccc2/C1=C\c1c(O)n(C)c(=O)n(C)c1=O	46.5 (≈ 131 µM)

Compound	solubility kinetic [µg/mL]
Cl.c1ccc2c(c1)nc(N1CCCCC1)c1ccccc12	1.8
O=[N+]([O-])c1cccc(-c2ccc(CN3CCCCC3)o2)c1	30.5 (≈ 107 µM)
CC(C)(C)OC(=O)C(C)(C)Sc1nnc(N)s1	> 41.3
COc1ccc(-c2csc(NC(=O)Nc3ccccc3)n2)cc1	1.8 (≈ 5.53 µM)
COc1ccc(OC)c(Nc2nc(NCc3ccco3)nc(N)c2[N+](=O)[O-])c1	< 0.1
CC(=O)c1ccc(OCC(=O)OC(C)C(=O)NC2CCCCC2)cc1 (centres undefined)	> 52.1
O=C1OC(C(=O)Nc2ccccc2)Cc2ccccc21 (centres undefined)	10.9 (≈ 40.8 µM)
ClC1(Cl)CC1CSc1nc2ccccc2[nH]1 (centres undefined)	39.8 (≈ 146 µM)
COC(=O)c1ccccc1NC(=O)CN1CCc2ccccc2C1	10.7 (≈ 33 µM)
Cc1cccc(NS(=O)(=O)c2cc(Cl)ccc2Cl)n1	> 47.6
COCC(=O)Nc1ccc(S(=O)(=O)NCC2CCCO2)cc1 (centres undefined)	> 49.3
C[N+]1(C)C2CCC1CC(OC(=O)c1ccccc1)C2.[Br-] (centres undefined)	> 51
CC(O)CN1CC(O)=C(c2nc3ccccc3s2)C1=N (centres undefined)	17.8 (≈ 61.5 µM)
Cc1ccc(C)c(NC(=O)CCN2CCCC(C)C2)c1 (centres undefined)	38.5 (≈ 140 µM)
CC(C)N(C(=O)COC(=O)c1cccnc1Cl)c1ccccc1	> 49.9
CC(=O)N=C1SC2CS(=O)(=O)CC2N1Cc1ccc(C)cc1 (centres undefined)	19.7 (≈ 58.2 µM)
CC(=O)Nc1ccc(/C=C/C(=O)c2ccc3c(c2)OCCO3)cc1	5.2 (≈ 16.1 µM)
CNC(=S)Nc1ccc(Cc2ccncc2)cc1	> 38.6
O=C(N/N=C/c1cccs1)c1cccnc1	> 34.7
CCOC(=O)C1CCN(c2ncnc3c(C)csc23)CC1	37.8 (≈ 124 µM)
COc1ccc(-n2c(C)cc(-c3cn4cccc(C)c4n3)c2C)cc1	11.9 (≈ 35.9 µM)
Cc1ccc(NC(=O)c2c([N+](=O)[O-])cnn2C)cc1C	> 41.1
C=CCn1c(SCC(=O)Nc2cc(C)on2)nnc1-c1ccccc1OC	> 57.8
